According to patent US20070224194A1, “Methods for Inhibiting Angiogenesis and/or Lymphangiogenesis” (LUDWIG INSTITUTE FOR CANCER RESEARCH, priority 2004, published 2007):
The star is where a group is joined. Decanoyl = CCCCCCCCCC(=O)*; CH2Cl = ClC*

Columns and labels:
[1] = system: proteolytic processing of VEGF-C; experiment: Processing of VEGF-C secreted by 293EBNA cells expressing VEGF-C-FULL-N-Myc (immunoprecipitation/Western blot); assay type: cell-based, human; conditions: 0, 1, 10, 50 or 100 μM, 18 hours, Western blot
Description: 293EBNA cells stably transfected with an expression construct encoding VEGF-C-FULL-N-Myc (full-length VEGF-C tagged with Myc at the N-terminus) or VEGF-D-FULL-N-FLAG (full-length VEGF-D tagged with FLAG at the N-terminus) secrete fully and partially processed forms of VEGF-C or VEGF-D into the culture medium (Joukov et al., EMBO J. 16:3898-3911 1997; Stacker et al., J. Biol. Chem. 274: 32127-32136, 1999). These cells were grown overnight in 24-well plates, seeded with 8×10^4 cells per well. At the time when cultures were initiated in these plates, growth medium was supplemented with Dec-RVKR-CMK (Calbiochem) (dissolved in methanol) to a final concentration of 0, 1, 10, 50 or 100 μM. Solvent control cultures were also established, in which the medium was supplemented with methanol at concentrations equal to those present in the cultures treated with inhibitor. […]
VEGF-C species were immunoprecipitated from conditioned medium by addition of anti-VEGF-C antibody that binds the VHD and C-terminal propeptide (R&D Systems). […] The precipitated VEGF-C and VEGF-D species were then analysed by Western blot using biotinylated antibodies against the VHD and C terminus of VEGF-C, or the VHD of VEGF-D (R&D Systems) and streptavidin-horse radish peroxidase conjugate (Zymed) (FIGS. 1 and 2). […]

[2] = system: proteolytic processing of VEGF-DΔC; experiment: Processing of VEGF-DΔC by 293EBNA cells (cleavage of N-terminal propeptide from VHD); assay type: cell-based, human; conditions: for band representing mature VHD from VEGF-DΔC: 1, 10, 50, 100 μM, 18 hours
Source text: An expression plasmid encoding a truncated derivative of human VEGF-D consisting of the N-terminal propeptide and the VHD tagged at the carboxyl terminus with the FLAG epitope (referred to as VEGF-DΔC) (FIG. 3, top panel) has been previously described (Stacker et al, J. Biol. Chem. 274 32127-32136, 1999). The VEGF-DΔC protein construct facilitates study of cleavage of the N-terminal propeptide from the VHD. The conditioned media of 293EBNA cells stably transfected with the VEGF-DΔC expression plasmid contain a mixture of VEGF-D proteins, including unprocessed VEGF-DΔC, and the proteolytically processed VHD. A second cell line was generated by stable transfection of 293EBNA cells with an expression construct encoding VEGF-DΔN, a truncated derivative of human VEGF-D consisting of the VHD tagged at the amino terminus with the FLAG epitope and C-terminal propeptide (FIG. 3, top panel). This protein construct facilitates study of cleavage of the C-terminal propeptide from the VHD. The conditioned media of 293EBNA cells expressing VEGF-DΔN contain a mixture of VEGF-D proteins, consisting of unprocessed VEGF-DΔN, and the proteolytically processed VHD. The VEGF-DΔN expression plasmid was constructed by replacing the 2-kb EcoRV fragment of the pAPEX-3 construct for full-length VEGF-D with the 2-kb EcoRV fragment of the pAPEX-3 construct for VEGF-DΔNΔC-FLAG (Stacker et al, J. Biol. Chem. 274 32127-32136, 1999).
The 293EBNA cell lines expressing VEGF-D-FULL-FLAG, VEGF-DΔC or VEGF-DΔN were seeded into 24-well plates (8×10^4 cells/well), in medium supplemented with Dec-RVKR-CMK dissolved in methanol, to a final concentration of 0, 1, 10, 50 or 100 μM. After 18 hours incubation (37° C., 10% CO2 in an humidified incubator), conditioned cell culture media were removed and clarified by centrifugation (5 minutes, 250×g, 4° C.). VEGF-D species were immunoprecipitated from conditioned media of 293EBNA VEGF-DΔC cells by addition of M2-agarose beads (Sigma-Aldrich), that bind the FLAG epitope attached to the carboxyl-terminus of the VHD, and from conditioned media of 293EBNA VEGF-DΔN cells by addition of A2 antiserum, that binds to epitopes within the VHD (Stacker et al, J. Biol. Chem. 274 32127-32136, 1999), followed by incubation with protein-A sepharose beads. Beads and bound proteins were recovered by centrifugation (5 minutes, 250×g, 4° C.) and washed twice with Tris-buffered saline (TBS; 50 mM Tris-Cl, 150 mM NaCl, pH 8.0). The precipitated VEGF-D species were then analysed by reducing SDS-PAGE and Western blotting using a biotinylated antibody against the VHD of human VEGF-D (R&D Systems), and Streptavidin-horse radish peroxidase conjugate (Zymed).

## Decanoyl-Arg-Val-Lys-Arg-chloromethylketone (Decanoyl-RVKR-CH2Cl) [Dec-RVKR-CMK]
[1]
  abundance of fully and partially processed forms of VEGF-C: dramatically reduced in abundance in a dose-dependent manner
[2]
  proteolytic cleavage of the N-terminal propeptide from the VHD, at both Major and Minor cleavage sites: completely abrogated
  band representing mature VHD from VEGF-DΔC: reduced in abundance in a dose dependent manner
[2]; 100 μM
  proteolytic processing of VEGF-DΔC: completely blocked
[2]; listed as dec-RVKR-CMK
  band representing mature VHD from VEGF-DΔC: blocked each of these processing events in a dose-dependent fashion
